From US6462055B2, “Alpha-methylbenzyl-containing thiourea inhibitors of herpes viruses containing a phenylenediamine group” (Wyeth, priority 1998, dated 2002)
In brackets after ≈: the same amount, converted by molar mass.

Experiments:
[1] = test system: HCMV recombinant mutant virus (RV145); assay: microbe, parasite or virus in culture; format: cell-based, human cytomegalovirus; conditions: for IC50: Human betaherpesvirus 5, read-out: IC50 ug/ml HCMV, HCMV
Source text: Microtiter plate assay. Ninety-six well plate cultures of human foreskin fibroblasts are infected in the presence of inhibitor compound with a HCMV recombinant mutant virus whose genome contains the prokaryotic beta-glucuronidase gene (Jefferson, R. A., S. M. Burgess, and D. Hirsh. 1986. Beta-glucuronidase from Escherichia coli as a gene fusion marker. Proc. Natl. Acad. Sci. USA 83:8447-8451) whose expression is controlled by a viral promoter. An example of such a virus is RV145 (Jones, T. R., V. P. Muzithras, and Y. Gluzman. 1991. Replacement mutagenesis of the human cytomegalovirus genome: US10 and US11 gene products are nonessential. J. Virol. 65:5860-5872). Since it is under the control of a viral promoter, beta-glucuronidase expression is an indirect indicator of growth and replication of HCMV in this assay. At 96 hours post-infection, the infected cell lysates are prepared (using 50 mM sodium phosphate [pH7.0]containing 0.1% Triton X-100 and 0.1% sarkosyl) and assayed for beta-glucuronidase activity using a substrate for the enzyme which when cleaved yields either a product which can be measured […] in a spectrophotometer or fluorescently in a microfluorimeter. Examples of such substrates are p-nitrophenyl-beta-D-glucuronide and methylumbelliferylglucuronide, respectively. The presence of an antiviral compound is indicated by the reduced expression of the HCMV genome resident beta-glucuronidase gene, compared to the absence of inhibitor. […] Data from this assay generated using varying amounts of inhibitor compound is also used to estimate the IC50 of an inhibitor compound.

VZV strain Ellen = assay: VZV Antiviral (ELISA) Assay in human foreskin fibroblast cells; format: cell-based, varicella-zoster virus; conditions: for IC50 / inhibition at 10 µg/mL: Human alphaherpesvirus 3, Fibroblast; for IC50: read-out: IC50 (ug/ml) VZV; for inhibition at 10 µg/mL: read-out: % inhibition 10 ug/ml VZV, 10 ug/ml
Procedure: For the generation of stock VZV to be used in the assay, VZV strain Ellen (ATCC #VR-1367) is used to infect human foreskin fibroblast (HFF) cells at low multiplicity (less than 0.1) and incubated overnight at 37° C. in 5% CO2. After the overnight incubation, the mixture of uninfected and VZV-infected HFF infected cells are then harvested and added to each well of 96-well plates (3.5×10^4 cells in 100 μl DMEM supplemented with 2% FBS) which contain test compound or the reference standard drug control (in 100 μl DMEM supplemented with 2% FBS per well). These cells are incubated for three days at 37° C. in 5% CO2, then fixed for ELISA assay. The primary antibody is murine anti-VZV glycoprotein II monoclonal antibody (Applied Biosystems, Inc. #13-145-100) and the secondary antibody is goat anti-mouse IgG linked to β-galactosidase. Thus the extent of viral replication is determined by assessing β-galactosidase activity by quantifying the generation of the 4-methyl umbelliferone fluorescent cleavage product after addition of the methyl umbelliferyl-β-D-galactoside (Sigma #M1633) substrate on a microfluorimeter (365 nm for excitation and 450 nm for emission). Antiviral activity (IC50) of the test compound is determined by comparing the flourescence obtained in absence of compound to that obtained in the presence of compound.

HSV-1 = assay: HSV Antiviral (ELISA) Assay in Vero cells; format: cell-based, herpes simplex virus type 1; conditions: HSV-1, Vero cells; for IC50: Human alphaherpesvirus 1, read-out: IC50 (ug/ml) HSV
Procedure: Vero cells (ATCC #CCL-81) are plated on 96-well tissue culture plates at 3.5×10^4 cells per 100 μl tissue culture DMEM (Dulbeccos modified Eagle media) supplemented with 2% fetal bovine serum (FBS) in each well. After overnight incubation @ 37° C. (in 5% CO2) and 30 minutes prior to infection with HSV-1 (multiplicity of infection equal to 0.006), cells are either untreated, or treated with test compound (multiple concentrations) or reference standard drug control. After approximately 24 hours post-infection incubation @ 37° C. (in 5% CO2), cells are fixed for ELISA assay. The primary antibody is murine anti-HSV glycoprotein D monoclonal primary antibody and the secondary antibody is goat anti-mouse IgG linked to β-galactosidase. Thus the extent of viral replication is determined by assessing β-galactosidase activity by quantifying the generation of the 4-methyl umbelliferone fluorescent cleavage product after addition of the methyl umbelliferyl-β-D-galactoside (Sigma #M1633) substrate on a microfluorimeter (365 nm for excitation and 450 nm for emission). Antiviral activity (IC50) of the test compound is determined by comparing the flourescence obtained in absence of compound to that obtained in the presence of compound.

Structure (SMILES)	IC50 ug/ml HCMV [1]	IC50 (ug/ml) VZV (VZV strain Ellen)	IC50 (VZV strain Ellen)	other results
COC(=O)c1cccc(C(=O)Nc2ccc(NC(=S)Nc3cc(Cl)c(OC)cc3OC)cc2)c1 [Example 208]	>10 µg/mL	>10 µg/mL		% inhibition 10 ug/ml VZV (VZV strain Ellen): 25%
Nc1cccc(NC(=S)Nc2ccc(NC(=O)c3ccccc3F)cc2)c1 [Example 434]	5 µg/mL (≈ 13.1 µM)	>10 µg/mL		% inhibition 10 ug/ml VZV (VZV strain Ellen): 0%
O=C(Nc1ccc(NC(=S)Nc2cccc(CO)c2)cc1)c1ccccc1F [Example 476]	>10 µg/mL	>10 µg/mL		% inhibition 10 ug/ml VZV (VZV strain Ellen): 21%
O=C(Nc1ccc(NC(=S)Nc2cc(N3CCCC3)cc(C(F)(F)F)c2)cc1)c1ccccc1F [Example 566]	>0.5 µg/mL	2 µg/mL (≈ 3.98 µM)		
CN(C)c1cc(NC(=S)Nc2ccc(NC(=O)c3ccccc3F)cc2)cc(C(F)(F)F)c1 [Example 567]			2 µg/mL (≈ 4.2 µM)	IC50 [1]: > 0.5 µg/mL
O=C(Nc1ccc(NC(=S)Nc2cc(N3CCOCC3)cc(C(F)(F)F)c2)cc1)c1ccccc1F [Example 568]	>0.5 µg/mL	2.3 µg/mL (≈ 4.44 µM)		
CN1CCN(c2cc(NC(=S)Nc3ccc(NC(=O)c4ccccc4F)cc3)cc(C(F)(F)F)c2)CC1 [Example 569]	>0.5 µg/mL	3 µg/mL (≈ 5.64 µM)		
O=C(Nc1ccc(NC(=S)NCCc2ccccc2)cc1)c1ccccc1F [Example 576]			8 µg/mL (≈ 20.3 µM)	IC50 [1]: > 0.5 µg/mL
CN(C)c1ccc(CNC(=S)Nc2ccc(NC(=O)c3ccccc3F)cc2)cc1C(F)(F)F [Example 610]	>0.5 µg/mL	>10 µg/mL		
CN(C)c1cc(CCNC(=S)Nc2ccc(NC(=O)c3ccccc3F)cc2)cc(C(F)(F)F)c1 [Example 653]	>0.5 µg/mL			IC50 (ug/ml) HSV (HSV-1): >10 µg/mL
O=C(Nc1ccc(NC(=S)NCCSc2ccccc2)cc1)c1ccccc1F [Example 656]	>0.5 µg/mL			IC50 (ug/ml) HSV (HSV-1): 5 µg/mL (≈ 11.7 µM)
O=C(Nc1ccc(NC(=S)NCCOc2cc(Cl)cc(Cl)c2)cc1)c1ccccc1F [Example 664]	>0.5 µg/mL			
O=C(Nc1ccc(NC(=S)NCCOc2cccc(Cl)c2)cc1)c1ccccc1F [Example 666]	>0.5 µg/mL			
CC(NC(=S)Nc1ccc(NC(=O)c2cccc(Cl)c2)cc1)c1ccc(F)cc1 (stereo not shown) [Example 761]	1.5 µg/mL (≈ 3.51 µM)	>10 µg/mL		
CC(NC(=S)Nc1ccc(NC(=O)c2ccc(N(C)C)cc2)cc1)c1ccc(F)cc1 (stereo not shown) [Example 765]	2.3 µg/mL (≈ 5.27 µM)			
COc1ccc(C(=O)Nc2ccc(NC(=S)Nc3cc(Br)c(OC)cc3OC)cc2)cc1 [Example 830, N-{4-[3-(5-Bromo-2,4-dimethoxy-phenyl)-thioureido]-phenyl}-4-methoxy-benzamide]			> 10 µg/mL	IC50 [1]: > 10 µg/mL; inhibition at 10 µg/mL (VZV strain Ellen): 16%
O=C(Nc1ccc(NC(=S)Nc2ccc(Br)c(Cl)c2)cc1)c1ccccc1F [Example 915, N-{4-[3-(4-Bromo-3-chloro-phenyl)-thioureido]-phenyl}-2-fluoro-benzamide]			> 10 µg/mL	IC50 [1]: > 10 µg/mL; inhibition at 10 µg/mL (VZV strain Ellen): 29%

Structure (SMILES)	IC50 ug/ml HCMV [1]	IC50 (ug/ml) VZV (VZV strain Ellen)	IC50 (VZV strain Ellen)	other results
NC(=O)c1cccc(NC(=S)Nc2ccc(NC(=O)c3ccccc3F)cc2)c1 [Example 952, N-[4-[[[[3-(Aminocarbonyl)phenyl]amino]thioxomethyl]amino]phenyl]-2-fluoro-benzamide]			> 10 µg/mL	IC50 [1]: > 10 µg/mL; inhibition at 10 µg/mL (VZV strain Ellen): 22%
O=C(Nc1ccc(NC(=S)Nc2cccc(OC(F)(F)F)c2)cc1)c1ccccc1F [Example 961, 2-Fluoro-N-{4-[3-(3-trifluoromethoxy-phenyl)-thioureido]-phenyl}-benzamide]			> 10 µg/mL	IC50 [1]: > 10 µg/mL; inhibition at 10 µg/mL (VZV strain Ellen): 53%
O=C(Nc1ccc(NC(=S)Nc2cccc(S(=O)(=O)CCO)c2)cc1)c1ccccc1F [Example 969, 2-Fluoro-N-(4-{3-[3-(2-hydroxy-ethanesulfonyl)-phenyl]-thioureido}-phenyl)-benzamide]			> 10 µg/mL	IC50 [1]: > 10 µg/mL; inhibition at 10 µg/mL (VZV strain Ellen): 19%
CC(NC(=S)Nc1ccc(NC(=O)c2ccccc2C(F)(F)F)cc1)c1ccc(F)cc1 (stereo not shown) [Example 992, N-(4-{3-[1-(4-Fluoro-phenyl)-ethyl]-thioureido}-phenyl)-2-trifluoromethyl-benzamide]			1.2 µg/mL (≈ 2.6 µM)	IC50 [1]: 4 µg/mL (≈ 8.67 µM)
Nc1ccc(C(F)(F)F)cc1NC(=S)Nc1ccc(NC(=O)c2ccccc2F)cc1 [Example 999, N-{4-[3-(2-Amino-5-trifluoromethyl-phenyl)-thioureido]-phenyl}-2-fluoro-benzamide]			9.4 µg/mL (≈ 21 µM)	IC50 [1]: 4 µg/mL (≈ 8.92 µM)
Nc1ccc(F)cc1NC(=S)Nc1ccc(NC(=O)c2ccccc2F)cc1 [Example 1007, N-{4-[3-(2-Amino-5-fluoro-phenyl)-thioureido]-phenyl}-2-fluoro-benzamide]			> 10 µg/mL	IC50 [1]: > 10 µg/mL
C[C@@H](NC(=S)Nc1ccc(NC(=O)c2ccccc2F)cc1)c1ccc(Cl)cc1 [Example 1014, N-(4-{3-[(1R)-1-(4-Chloro-phenyl)-ethyl]-thioureido}-phenyl)-2-fluoro-benzamide]			> 7.5 µg/mL	IC50 (HSV-1): > 10 µg/mL
C[C@H](NC(=S)Nc1ccc(NC(=O)c2ccccc2F)cc1)c1ccc(Cl)cc1 [Example 1015, N-(4-{3-[(1S)-1-(4-Chloro-phenyl)-ethyl]-thioureido}-phenyl)-2-fluorobenzamide]			0.03 µg/mL (≈ 0.0701 µM)	IC50 (HSV-1): > 10 µg/mL
C[C@@H](NC(=S)Nc1ccc(NC(=O)c2ccccc2F)cc1)c1ccccc1 [Example 1016, 2-Fluoro-N-{4-[3-((1R)-1-phenyl-ethyl)-thioureido]-phenyl}-benzamide]			> 7.5 µg/mL	IC50 (HSV-1): > 10 µg/mL
CC(NC(=S)Nc1ccc(NC(=O)c2cccc(C#N)c2)cc1)c1ccc(F)cc1 (stereo not shown) [Example 1020, 3-Cyano-N-(4-{3-[1-(4-fluoro-phenyl)-ethyl]-thioureido}-phenyl)-benzamide]			6.3 µg/mL (≈ 15.1 µM)	IC50 (HSV-1): > 10 µg/mL
CC(NC(=S)Nc1ccc(NC(=O)c2ccc(C#N)cc2)cc1)c1ccc(F)cc1 (stereo not shown) [Example 1022, 4-Cyano-N-(4-{3-[1-(4-fluoro-phenyl)-ethyl]-thioureido}-phenyl)-benzamide]			1.5 µg/mL (≈ 3.58 µM)	IC50 (HSV-1): > 10 µg/mL
CC(NC(=S)Nc1ccc(NC(=O)c2ccccc2F)cc1)c1ccc(Br)cc1 (stereo not shown) [Example 1102]	1.7 µg/mL (≈ 3.6 µM)	0.2 µg/mL (≈ 0.423 µM)		
C[C@H](NC(=S)Nc1ccc(NC(=O)c2ccc(F)cc2)cc1)c1ccc(Br)cc1 [Example 1103]	3.4 µg/mL (≈ 7.2 µM)	0.47 µg/mL (≈ 0.995 µM)		
COc1ccccc1C(=O)Nc1ccc(NC(=S)N[C@@H](C)c2ccc(Br)cc2)cc1 [Example 1104]	4.9 µg/mL (≈ 10.1 µM)	0.09 µg/mL (≈ 0.186 µM)		
COc1ccccc1C(=O)Nc1ccc(NC(=S)N[C@H](C)c2ccc(Br)cc2)cc1 [Example 1105]	2.5 µg/mL (≈ 5.16 µM)	>7.5 µg/mL		
C[C@H](NC(=S)Nc1ccc(NC(=O)c2nccc3ccccc23)cc1)c1ccc(Br)cc1 [Example 1107]	8.1 µg/mL (≈ 16 µM)	0.05 µg/mL (≈ 0.0989 µM)		
C[C@H](NC(=S)Nc1ccc(NC(=O)c2cc3ccccc3cn2)cc1)c1ccc(Br)cc1 [Example 1108]	2.3 µg/mL (≈ 4.55 µM)	0.05 µg/mL (≈ 0.0989 µM)		
